Laboratory results as given in patent US3965109A, “Certain aryl amino pyridines” (priority 1971, dated 1976).

Legend:
[1] = test system: Tetranychus telarius (red spider mites, eggs); experiment: Pest toxicity test; format: in vivo; details: 0.1% by weight; French bean; 3 days
[2] = test system: Aedes aegypti (mosquito larvae); experiment: Pest toxicity test; format: in vivo; details: for Mortality grading (kill): 0.01% by weight, water, 1 day
[3] = test system: Megoura viceae; experiment: Pest toxicity test; format: in vivo; details: 0.1% by weight; broad bean; 2 days
[4] = test system: Aedes aegypti (mosquito adults); experiment: Pest toxicity test; format: in vivo; details: 0.01% by weight; plywood; 1 day
[5] = test system: Pieris brassicae (cabbage white caterpillars); experiment: Pest toxicity test; format: in vivo; details: 0.1% by weight, 2 days
[6] = test system: Tetranychus telarius (red spider mites, adults); experiment: Pest toxicity test; format: in vivo; details: 0.1% by weight; French bean; 3 days
[7] = test system: Aphis fabae; experiment: Pest toxicity test; format: in vivo; details: 0.1% by weight; broad bean; 2 days
[8] = test system: Musca domestica (houseflies); experiment: Pest toxicity test, contact test; format: in vivo; details: 0.1% by weight; milk/sugar; 2 days; flies sprayed directly
[9] = test system: Agriolimax reticulatus (slugs); experiment: Molluscicidal activity test; format: in vivo, Agriolimax reticulatus (Mull); details: pellet with 4% by weight; 6 days; 10°C
Summary of the method: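 Slugs were starved for 24 hours, then housed two per dish, in duplicate, under high humidity at 10°C. They fed on pellets dried to contain 4% w/w of test compound. Mortality was scored on day 6.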

[10] = test system: Plutella maculipennis (diamond back moth larvae); experiment: Pest toxicity test; format: in vivo
[11] = test system: Meloidogyne incognita (nematodes); experiment: Pest toxicity test; format: in vivo; details: 0.01% by weight; water; 1 day
[12] = test system: Phaedon cochleariae (mustard beetles); experiment: Pest toxicity test; format: in vivo
[13] = test system: Phytophthora infestans (tomato); format: in vivo; details: 100 ppm spray and drench; 3 days
[14] = test system: Uncinula necator (vine); experiment: Fungicidal test against foliar disease D (foliage spray plus soil drench); format: in vivo; details: 100 ppm spray and drench; 10 days
[15] = test system: Plasmopara viticola (vine); experiment: Fungicidal test against foliar disease C (foliage spray plus soil drench); format: in vivo; details: 100 ppm spray and drench; 10 days
[16] = test system: Piricularia oryzae (rice); format: in vivo; details: 100 ppm spray and drench; 7 days
[17] = test system: Puccinia recondita (wheat); experiment: Fungicidal test against foliar disease A (foliage spray plus soil drench); format: in vivo; details: 100 ppm spray and drench; 10 days
[18] = test system: Streptomyces scabies; experiment: Antibacterial agar test (B7); format: cell-based; details: 50 ppm; 5 days
[19] = test system: Agrobacterium tumifaciens; experiment: Antibacterial agar test (B1); format: cell-based; details: 50 ppm; 5 days
[20] = test system: Pseudomonas syringae; experiment: Antibacterial agar test (B6); format: cell-based; details: 50 ppm; 5 days
[21] = test system: Corynebacterium michiganense; experiment: Antibacterial agar test (B2); format: cell-based; details: 50 ppm; 5 days
Summary of the method: (§1)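 Bacterial growth on nutrient agar containing 50 ppm final test compound (added from an acetone solution or suspension) was scored 5 days after multipoint inoculation, using graded ratings. Plates were dried overnight before inoculation.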

[22] = test system: Erwinia carotovora; experiment: Antibacterial agar test (B4); format: cell-based; details: 50 ppm; 5 days
[23] = test system: Xanthomonas malvacearum; experiment: Antibacterial agar test (B3); format: cell-based; details: 50 ppm; 5 days
Summary of the method: as §1

[24] = test system: Xanthomonas oryzae; format: cell-based; details: 50 ppm; 5 days
[25] = 0.1% by weight, mustard/paper, 2 days

| SMILES | Mortality grading (kill) [1] | Mortality grading (kill) [2] | Mortality grading (kill) [3] | Mortality grading (kill) [4] | Mortality grading (kill) [5] | Mortality grading (kill) [6] | Mortality grading (kill) [7] | Mortality grading (kill), contact test [8] | % Kill of slugs [9] [%] | Mortality grading (kill) [11] | Mortality grading (kill) ([10]; in vivo) | Mortality grading (kill) ([12]; in vivo) | Antibacterial activity grading B7 [18] | Amount of disease grading, disease B (Table 4) [13] | Amount of disease grading, disease D (Table 4) [14] | Amount of disease grading, disease C (Table 4) [15] | Amount of disease grading, disease E (Table 4) [16] | Antibacterial activity grading B1 [19] | Antibacterial activity grading B6 [20] | Amount of disease grading, disease A (Table 4) [17] | other results |
| --- | --- | --- | --- | --- | --- | --- | --- | --- | --- | --- | --- | --- | --- | --- | --- | --- | --- | --- | --- | --- | --- |
| Fc1ccc(Nc2c(Cl)c(F)nc(F)c2Cl)cc1 [Compound 4, 3,5-Dichloro-2,6-difluoro-4(p-fluoroanilino)pyridine] | 0 (O represents less than 30% kill) | 0 (O represents less than 30% kill) | 0 (O represents less than 30% kill) | 0 (O represents less than 30% kill) | 0 (O represents less than 30% kill) | 0 (O represents less than 30% kill) | 0 (O represents less than 30% kill) | 0 (O represents less than 30% kill) | 100 | 2 (2 represents 60 - 90% kill) | – | – | – | – | – | – | – | – | – | – | abnormal growth effects in larva of mosquitos ([2]; in vivo): abnormal growth effects; Mortality grading (kill) [10, 25]: 0 (O represents less than 30% kill); Mortality grading (kill) [12, 25]: 0 (O represents less than 30% kill) |
| O=[N+]([O-])c1cc(C(F)(F)F)ccc1Nc1c(Cl)c(F)nc(F)c1Cl [Compound 16, 3,5-Dichloro-2,6-difluoro-4(2-nitro-4-trifluoromethylanilino) pyridine] | 0 (O represents less than 30% kill) | 0 (O represents less than 30% kill) | 0 (O represents less than 30% kill) | 0 (O represents less than 30% kill) | 0 (O represents less than 30% kill) | 2 (2 represents 60 - 90% kill) | 0 (O represents less than 30% kill) | 0 (O represents less than 30% kill) | 50 | 2 (2 represents 60 - 90% kill) | 0 (key: O represents less than 30% kill; 1 represents 30 - 49% kill; 2 represents 60 - 90% kill; 3 represents over 90% kill; C indicates a chemosterilant effect.; A indicates an antifeeding effect.) | 0 (key: O represents less than 30% kill; 1 represents 30 - 49% kill; 2 represents 60 - 90% kill; 3 represents over 90% kill; C indicates a chemosterilant effect.; A indicates an antifeeding effect.) | – | – | – | – | – | – | – | – | Amount of disease grading, disease B [13]: 0 (61 to 100); Amount of disease grading, disease D [14]: 0 (61 to 100); Amount of disease grading, disease C [15]: 3 (0 to 5); Amount of disease grading, disease E [16]: 0 (61 to 100); Amount of disease grading, disease A [17]: 0 (61 to 100) |
| O=[N+]([O-])c1cc(Cl)c(Nc2c(Cl)c(F)nc(F)c2Cl)cc1Cl [Compound 24, 3,5-Dichloro-2,6-difluoro-4(2,5-dichloro-4nitro-anilino)pyridine] | 0 (O represents less than 30% kill) | 3 (3 represents over 90% kill) | 0 (O represents less than 30% kill) | 0 (O represents less than 30% kill) | 0 (O represents less than 30% kill) | 3 (3 represents over 90% kill) | 0 (O represents less than 30% kill) | 1 (1 represents 30 - 49% kill) | – | 0 (O represents less than 30% kill) | 0 (key: O represents less than 30% kill; 1 represents 30 - 49% kill; 2 represents 60 - 90% kill; 3 represents over 90% kill; C indicates a chemosterilant effect.; A indicates an antifeeding effect.) | 0 (key: O represents less than 30% kill; 1 represents 30 - 49% kill; 2 represents 60 - 90% kill; 3 represents over 90% kill; C indicates a chemosterilant effect.; A indicates an antifeeding effect.) | 3 (0 to 5) | 3 (0 to 5) | 3 (0 to 5) | 3 (0 to 5) | 0 (61 to 100) | 3 (0 to 5) | 3 (0 to 5) | 0 (61 to 100) | Antibacterial activity grading B2 [21]: 3 (0 to 5); Antibacterial activity grading B4 [22]: 3 (0 to 5); Antibacterial activity grading B3 [23]: 3 (0 to 5); Antibacterial activity grading B5 [24]: 3 (0 to 5) |
| Fc1nc(F)c(Cl)c(Nc2c(F)c(F)c(Br)c(F)c2F)c1Cl [Compound 30, 4(4-Bromo-2,3,5,6-tetrafluoroanilino)-3,5-dichloro-2,6-difluoropyridine] | 0 (O represents less than 30% kill) | 3 (3 represents over 90% kill) | 0 (O represents less than 30% kill) | 2 (2 represents 60 - 90% kill) | 3 (3 represents over 90% kill) | 3 (3 represents over 90% kill) | 0 (O represents less than 30% kill) | 0 (O represents less than 30% kill) | 100 | 3 (3 represents over 90% kill) | 1 (key: O represents less than 30% kill; 1 represents 30 - 49% kill; 2 represents 60 - 90% kill; 3 represents over 90% kill; C indicates a chemosterilant effect.; A indicates an antifeeding effect.) | 0 (key: O represents less than 30% kill; 1 represents 30 - 49% kill; 2 represents 60 - 90% kill; 3 represents over 90% kill; C indicates a chemosterilant effect.; A indicates an antifeeding effect.) | – | 1 (26 to 60) | 0 (61 to 100) | 3 (0 to 5) | 0 (61 to 100) | – | – | 0 (61 to 100) | – |
| N#Cc1c(F)c(F)c(Nc2c(Cl)c(F)nc(F)c2Cl)c(F)c1C#N [Compound 33, 3,5-Dichloro-4(3,4-dicyano-2,5,6-trifluoroanilino) 2,6-difluoropyridine] | 3 (3 represents over 90% kill) | 0 (O represents less than 30% kill) | 0 (O represents less than 30% kill) | 2 (2 represents 60 - 90% kill) | 3 (3 represents over 90% kill) | 3 (3 represents over 90% kill) | 0 (O represents less than 30% kill) | – | – | 0 (O represents less than 30% kill) | 1 (key: O represents less than 30% kill; 1 represents 30 - 49% kill; 2 represents 60 - 90% kill; 3 represents over 90% kill; C indicates a chemosterilant effect.; A indicates an antifeeding effect.) | 0 (key: O represents less than 30% kill; 1 represents 30 - 49% kill; 2 represents 60 - 90% kill; 3 represents over 90% kill; C indicates a chemosterilant effect.; A indicates an antifeeding effect.) | 3 (0 to 5) | 3 (0 to 5) | 2 (6 to 25) | 3 (0 to 5) | 3 (0 to 5) | 3 (0 to 5) | 3 (0 to 5) | 2 (6 to 25) | Antibacterial activity grading B2 [21]: 3 (0 to 5); Antibacterial activity grading B4 [22]: 3 (0 to 5); Antibacterial activity grading B3 [23]: 3 (0 to 5); Antibacterial activity grading B5 [24]: 3 (0 to 5) |
